This is an account of results in US20250332223A1, “GHRH ANTAGONISTS FOR USE IN A METHOD OF TREATING SARCOIDOSIS” (University of Miami, priority 2019, published 2025).

The assay concerns mouse model of pulmonary sarcoidosis. Put plainly: Mouse model of pulmonary sarcoidosis, lung inflammation grading (Example 1). It is filed as in vivo, C57B1/6 mice. The settings on record: sarcoidosis mice, treated two weeks, vs saline-treated sarcoidosis group; MIA-602 5 μg/day intraperitoneal; FIGS. 1A-E. How it is done: Granulomatous reaction in the mouse lung was developed as previously described (Zhang et al., Front Immunol 2019; 10: 2888).
The detail of the methodology used for confocal microscopy is discussed in Zhang et al., Front Immunol 2019; 10: 2888. To summarize, mice were killed on day 14, and the left lungs were harvested. Lungs were filled with 10% buffered formalin and fixed in formalin for at least 72 h before IHC staining. H&E staining was used to determine inflammatory pathology.
Lung inflammation was scored using the three fields with the highest infiltrate's intensity at 100× power magnification as previously described (Zhang et al., Front Immunol 2019; 10: 2888). The area of inflammation was measured and averaged for the three examined high-power fields.
A mouse model of pulmonary sarcoidosis was established in C57B1/6 mice by administering microparticles intratracheally. The tongue was pulled out with a small spatula and microparticles were inserted into the trachea using a 20 G angio-catheter tube at the time of laryngeal opening and advanced to main bronchus until reach to resistant. After tube placement, microparticles were administered: a first dose of 5×10^8 CFU of M. abscessus in 50 μL with three subsequent doses of 2×10^8 CFU of M. abscessus in 20 μL. A control group received only 20 μL PBS intratracheally. Mice receiving microparticles developed noncaseating granuloma in the lung, as observed use H&E staining and immunohistochemistry staining for CD68 macrophage marker, CD4 marker, and PD-L1.
The first sarcoidosis group received MIA-602 (5 μg/day), administered via intraperitoneal injection. The second sarcoidosis group received α-melanocyte stimulating hormone (α-MSH), the third sarcoidosis group received steroid treatment (methyl-prednisone, the current first line treatment for sarcoidosis), and the fourth group received only saline. Mice were sacrificed after two weeks, and inflammation in lung samples was graded.

In the case of `C[C@H]1C[C@@H]2[C@H]([C@@H](O)C[C@@]3(C)[C@H]2CC[C@]3(O)C(=O)COC(=O)CCC(=O)[O-])[C@@]2(C)C=CC(=O)C=C12.[Na+]` [methyl-prednisone], the “inflammation in lung samples (inflammation score)” value is recorded as “did not affect inflammation”.

For “α-melanocyte stimulating hormone [a-MSH]”, the “inflammation in lung samples (inflammation score)” value is “lower inflammation scores”.
